From ChEMBL document CHEMBL4431312, “Development of an Orally Available and Central Nervous System (CNS) Penetrant Toxoplasma gondii Calcium-Dependent Protein Kinase 1 (TgCDPK1) Inhibitor with Minimal Human Ether-a-go-go-Related Gene (hERG) Activity for the Treatment of Toxoplasmosis” (J Med Chem, 2016)
Values after ≈ are worked out from the molar mass of the structure shown.

Experiments:
in vitro [1] = details: human, CRL8155 cells
in vitro [2] = details: human, HepG2 cells
[3] = molecular target: Voltage-gated inwardly rectifying potassium channel KCNH2 (Homo sapiens, UniProt Q12809)
Voltage-gated inwardly rectifying potassium channel KCNH2, sequence (Q12809 whole entry): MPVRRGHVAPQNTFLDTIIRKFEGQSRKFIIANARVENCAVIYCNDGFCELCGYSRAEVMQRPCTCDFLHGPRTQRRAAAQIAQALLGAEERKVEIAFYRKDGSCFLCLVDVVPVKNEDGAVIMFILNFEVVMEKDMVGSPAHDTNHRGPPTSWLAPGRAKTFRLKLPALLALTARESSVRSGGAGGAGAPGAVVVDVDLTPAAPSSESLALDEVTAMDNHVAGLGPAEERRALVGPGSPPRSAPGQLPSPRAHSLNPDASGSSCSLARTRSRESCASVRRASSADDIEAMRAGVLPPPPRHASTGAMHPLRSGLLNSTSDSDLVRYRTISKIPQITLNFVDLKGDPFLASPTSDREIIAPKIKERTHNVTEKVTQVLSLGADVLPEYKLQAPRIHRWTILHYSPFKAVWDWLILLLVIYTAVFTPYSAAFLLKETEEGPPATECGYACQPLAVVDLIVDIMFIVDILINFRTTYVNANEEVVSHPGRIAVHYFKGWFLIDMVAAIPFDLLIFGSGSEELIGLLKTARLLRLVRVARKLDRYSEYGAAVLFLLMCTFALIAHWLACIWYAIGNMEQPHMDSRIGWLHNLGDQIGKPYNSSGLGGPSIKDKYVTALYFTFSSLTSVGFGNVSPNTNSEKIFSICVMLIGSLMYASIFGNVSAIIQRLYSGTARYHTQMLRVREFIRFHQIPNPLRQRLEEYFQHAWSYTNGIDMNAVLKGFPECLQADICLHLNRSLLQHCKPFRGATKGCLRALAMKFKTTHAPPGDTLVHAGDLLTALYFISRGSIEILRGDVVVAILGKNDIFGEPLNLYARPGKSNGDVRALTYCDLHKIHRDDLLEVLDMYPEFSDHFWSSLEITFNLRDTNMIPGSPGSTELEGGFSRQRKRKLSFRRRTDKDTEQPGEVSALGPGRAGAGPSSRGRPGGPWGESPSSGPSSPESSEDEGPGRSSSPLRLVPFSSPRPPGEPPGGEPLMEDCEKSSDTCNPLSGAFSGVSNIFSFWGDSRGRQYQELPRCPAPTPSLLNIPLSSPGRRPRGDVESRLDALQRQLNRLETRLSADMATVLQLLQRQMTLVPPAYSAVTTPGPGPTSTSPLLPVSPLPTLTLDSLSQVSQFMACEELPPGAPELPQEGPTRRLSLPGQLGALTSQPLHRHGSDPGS

[4] = molecular target: T1, Calmodulin-domain protein kinase 1 (Toxoplasma gondii, UniProt Q9BJF5)
T1 sequence (Q9BJF5 whole entry): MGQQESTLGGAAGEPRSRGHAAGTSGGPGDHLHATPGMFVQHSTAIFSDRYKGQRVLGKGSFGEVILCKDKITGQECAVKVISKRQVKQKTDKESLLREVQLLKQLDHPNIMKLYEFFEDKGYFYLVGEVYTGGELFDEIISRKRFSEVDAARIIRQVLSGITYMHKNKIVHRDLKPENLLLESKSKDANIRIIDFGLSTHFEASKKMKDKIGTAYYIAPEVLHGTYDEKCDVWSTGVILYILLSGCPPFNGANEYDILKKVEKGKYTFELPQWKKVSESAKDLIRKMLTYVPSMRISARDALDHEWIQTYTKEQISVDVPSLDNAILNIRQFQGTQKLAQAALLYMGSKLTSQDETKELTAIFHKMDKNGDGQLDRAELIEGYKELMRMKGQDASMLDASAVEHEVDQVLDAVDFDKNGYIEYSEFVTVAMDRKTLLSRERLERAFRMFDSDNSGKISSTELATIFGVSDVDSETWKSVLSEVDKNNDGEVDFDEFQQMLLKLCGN

[5] = molecular target: Proto-oncogene tyrosine-protein kinase Src (Gallus gallus, UniProt P00523)
in vivo [6] = details: BALB/c, mouse, plasma, po, 10 mg/kg
in vivo [7] = details: BALB/c, mouse, plasma, po, 10 mg/kg; remark: listed apart in the source
in vivo [8] = details: BALB/c, mouse, plasma, po, 10 mg/kg; remark: listed apart in the source
in vivo [9] = details: BALB/c, mouse, plasma, po, 10 mg/kg; remark: listed apart in the source
in vivo [10] = details: BALB/c, mouse, plasma, po, 10 mg/kg; remark: listed apart in the source
[11] = buffer, pH 6.5
[12] = mouse, in vivo, po, 10 mg/kg
Toxoplasma gondii = test: microbe, parasite or virus in culture; details: 44 h
[13] = mouse, in vivo, po, 10 mg/kg; remark: listed apart in the source

GI50 at 48 h (in vitro [1]) | GI50 at 48 h (in vitro [2]) | IC50 [5] | Structure (SMILES) | IC50 [3] | IC50 [4] | CL/F (in vivo [6]) | Cmax (in vivo [7]) | half-life (in vivo [8]) | Tmax (in vivo [9]) | AUC(0-inf) (in vivo [10]) | solubility [11] | Cmax [12] | EC50 (Toxoplasma gondii) | Tmax [13]
> 10 µM | > 10 µM | > 10 µM | CN1CCC(Cn2nc(-c3ccc4cc(OCC5CC5)ccc4c3)c3c(N)ncnc32)CC1 | 0.9 µM | – | – | – | – | – | – | – | – | – | –
> 10 µM | > 10 µM | > 10 µM | CN(C)CC(C)(C)Cn1nc(-c2ccc3nc(OC4CC4)ccc3c2)c2c(N)ncnc21 | 0.082 µM | – | – | – | – | – | – | – | – | – | –
> 10 µM | > 10 µM | 1.1 µM | CCOc1ccc2cc(-c3nn(CC4CN(C(C)=O)C4)c4ncnc(N)c34)ccc2c1 | > 10 µM | 0.004 µM | – | – | – | – | – | – | – | – | –
> 10 µM | > 10 µM | > 10 µM | CN1CCC(Cn2nc(-c3ccc4cc(OC5CCC5)ccc4c3)c3c(N)ncnc32)CC1 | 0.2 µM | – | – | – | – | – | – | – | – | – | –
> 10 µM | > 10 µM | > 10 µM | CC(C)Cn1nc(-c2ccc3nc(OC4CC4)ccc3c2)c2c(N)ncnc21 | > 10 µM | – | – | – | – | – | – | – | – | – | –
> 10 µM | > 10 µM | > 10 µM | CCOc1ccc2cc(-c3nn(CC4CN(C)C4)c4ncnc(N)c34)ccc2c1 | 1.4 µM | 0.006 µM | – | – | – | – | – | – | – | – | –
> 10 µM | – | 3.7 µM | CC(C)Cn1nc(-c2ccc3cc(OC4CC4)ccc3c2)c2c(N)ncnc21 | > 10 µM | 0.0011 µM | – | – | – | – | – | – | – | – | –
> 10 µM | > 10 µM | > 10 µM | CCOc1ccc2cc(-c3nn(CC4CNC4)c4ncnc(N)c34)ccc2c1 | 1.7 µM | 0.0032 µM | – | – | – | – | – | – | – | – | –
> 10 µM | > 10 µM | > 10 µM | CN1CCC(Cn2nc(-c3ccc4cc(OC5COC5)ccc4c3)c3c(N)ncnc32)CC1 | – | 0.01 µM | – | – | – | – | – | – | – | – | –
> 10 µM | > 10 µM | > 10 µM | CCOc1ccc2cc(-c3nn(CC(C)C)c4ncnc(N)c34)ccc2c1 | > 10 µM | – | – | – | – | – | – | – | – | – | –
> 10 µM | > 10 µM | > 10 µM | CCOc1ccc2cc(-c3nn(CC4CCN(C(C)C)CC4)c4ncnc(N)c34)ccc2c1 | 0.3 µM | 0.01 µM | – | – | – | – | – | – | – | – | –
> 10 µM | > 10 µM | > 10 µM | Nc1ncnc2c1c(-c1ccc3cc(OC4CC4)ccc3c1)nn2CC(O)(C(F)(F)F)C(F)(F)F | – | – | – | – | – | – | – | – | – | – | –
> 10 µM | > 10 µM | > 10 µM | COCCOc1ccc2cc(-c3nn(CC4CCN(C)CC4)c4ncnc(N)c34)ccc2c1 | – | – | – | – | – | – | – | – | – | – | –
> 10 µM | > 10 µM | > 10 µM | CCOc1ccc2cc(-c3nn(CC4CCOCC4)c4ncnc(N)c34)ccc2n1 | > 10 µM | – | – | – | – | – | – | – | – | – | –
> 10 µM | > 10 µM | > 10 µM | CCOc1ccc2cc(-c3nn(CC4CCOCC4)c4ncnc(N)c34)ccc2c1 | > 10 µM | 0.002 µM | – | – | – | – | – | – | – | – | –
> 10 µM | > 10 µM | > 10 µM | CCOc1ccc2cc(-c3nn(CC(C)(C)O)c4ncnc(N)c34)ccc2c1 | – | – | – | – | – | – | – | – | – | – | –

More lines, now with the values behind:

Structure (SMILES) | GI50 at 48 h (in vitro [1]) | GI50 at 48 h (in vitro [2]) | IC50 [5] | IC50 [3] | IC50 [4] | CL/F (in vivo [6]) | Cmax (in vivo [7]) | half-life (in vivo [8]) | Tmax (in vivo [9]) | AUC(0-inf) (in vivo [10]) | solubility [11] | Cmax [12] | EC50 (Toxoplasma gondii) | Tmax [13]
Nc1ncnc2c1c(-c1ccc3cc(OC4CC4)ccc3c1)nn2CC1CCOCC1 | > 10 µM | > 10 µM | 0.37 µM | > 10 µM | 0.0024 µM | – | – | – | – | – | – | – | – | –
CCOc1ccc2cc(-c3nn(CC(C)(C)O)c4ncnc(N)c34)ccc2n1 | > 10 µM | > 10 µM | > 10 µM | > 10 µM | – | 0.2 mL/min | – | – | – | – | – | – | – | –
CCOc1ccc2cc(-c3nn(CC4CCN(C)CC4)c4ncnc(N)c34)ccc2n1 | > 10 µM | > 10 µM | > 10 µM | 10 µM | 0.0061 µM | 1.8 mL/min | 260 nM | 3.72 h | 3.33 h | – | – | – | – | –
CN1CCC(Cn2nc(-c3ccc4cc(OC5CC5)ccc4c3)c3c(N)ncnc32)CC1 | > 10 µM | – | > 10 µM | 0.37 µM | 0.0015 µM | – | – | – | – | – | – | – | – | –
CC(C)(CO)Cn1nc(-c2ccc3nc(OC4CC4)ccc3c2)c2c(N)ncnc21 | > 10 µM | > 10 µM | 7.4 µM | > 10 µM | – | 21 mL/min | 3900 nM | 0.683 h | – | 0.065 µM·h | 8 µM (≈ 3.24 µg/mL) | – | – | –
CC(C)(CO)Cn1nc(-c2ccc3cc(OC4CC4)ccc3c2)c2c(N)ncnc21 | > 10 µM | > 10 µM | 3.1 µM | > 10 µM | – | 6.7 mL/min | – | – | – | 0.517 µM·h | – | 390 nM | 0.056 µM | –
CN1CCC(Cn2nc(-c3ccc4nc(OC5CC5)ccc4c3)c3c(N)ncnc32)CC1 | – | > 10 µM | > 10 µM | 1.7 µM | – | – | – | – | – | – | – | – | – | –
CN1CCC(Cn2nc(-c3ccc4nc(OCC(F)(F)F)ccc4c3)c3c(N)ncnc32)CC1 | – | – | – | 0.5 µM | – | – | – | – | – | – | – | – | – | –
CC1(Cn2nc(-c3ccc4cc(OC5CC5)ccc4c3)c3c(N)ncnc32)COC1 | > 10 µM | > 10 µM | > 10 µM | 1.9 µM | 0.0021 µM | – | – | – | – | – | – | – | – | –
Nc1ncnc2c1c(-c1ccc3nc(OC4CC4)ccc3c1)nn2CC1CCOCC1 | > 10 µM | > 10 µM | > 10 µM | > 10 µM | – | 110 mL/min | – | – | – | 1.12 µM·h | – | 880 nM | 0.081 µM | 0.5 h
CC(C)(CO)Cn1nc(-c2ccc3nc(OCC(F)(F)F)ccc3c2)c2c(N)ncnc21 | > 10 µM | > 10 µM | > 10 µM | – | 0.017 µM | – | – | – | – | – | – | – | – | –
CCOc1ccc2cc(-c3nn(CC4CCN(C)CC4)c4ncnc(N)c34)ccc2c1 | > 10 µM | > 10 µM | > 10 µM | 0.4 µM | – | 0.7 mL/min | – | – | 2 h | – | – | 750 nM | – | –
CCOc1ccc2cc(-c3nn(CC4CCN(C(C)=O)CC4)c4ncnc(N)c34)ccc2c1 | > 10 µM | > 10 µM | > 10 µM | > 10 µM | – | 2.5 mL/min | 890 nM | – | – | 1.57 µM·h | 48 µM (≈ 21.3 µg/mL) | – | – | –
CC1(Cn2nc(-c3ccc4nc(OC5CC5)ccc4c3)c3c(N)ncnc32)COC1 | > 10 µM | > 10 µM | > 10 µM | > 10 µM | – | – | – | – | – | – | – | – | – | –
